Paper PMC8949600, “In Vitro & In Vivo Studies on Identifying and Designing Temporin-1CEh from the Skin Secretion of Rana chensinensis as the Optimised Antibacterial Prototype Drug” (Pharmaceutics, 2022)
Values after ≈ are worked out from the molar mass of the structure shown. Read-outs that look alike come from different tables or passages of the source. Bridge positions count the residues as written; N and C are the ends. Peptide text beside a SMILES is read from it. I, II: the chains in the order shown.

Tests used:
E. coli (ATCC 8739) [1] = type: cell-based
Experimental: (§1) A measure of 5 × 10^5 CFU/mL of bacterial suspension including 2-fold dilution peptides (ranging from 1 µM to 512 µM) was incubated in 96-well plates for 16–20 h at 37 °C. For the positive and negative control, 200 mg/L of final concentration of norfloxacin and 1% DMSO were applied, respectively. […] Subsequently, 10 µL of the solution in each clear well was dropped on a Mueller–Hinton agar (MHA) plate and incubated at 37 °C for 16–20 h. The lowest concentration without colony growth was considered as the MBCs.
(§2) Mueller–Hinton broth (MHB) at pH 6.0 and 8.0 as well as MHB containing 10% of Fetal Bovine Serum (FBS), 150 mM of NaCl, 1 mM of MgCl2 and 4 µM of FeCl3, respectively, were prepared. In particular, the pathogens were diluted by the preprepared mediums to a final concentration of 5 × 10^5 CFU/mL after growing to the logarithmic phase, and other operations followed the MIC assay.

E. faecalis (NCTC 12697) = type: cell-based
Experimental: as §1, §2

[2] = system: K. pneumoniae (ATCC 43816); type: cell-based
Experimental: as §1, §2

MRSA (NCTC 12493) = type: cell-based
Experimental: as §1, §2

[3] = system: P. aeruginosa (ATCC 27853); type: cell-based
Experimental: as §1, §2

[4] = system: S. aureus (ATCC CRM 6538); type: cell-based
Experimental: as §1, §2

[5] = system: E. coli (ATCC 8739) biofilm; type: cell-based
Experimental: (§3) The anti-biofilm activities were tested on S. aureus and E. coli, as indicated previously. For the positive and negative control, 20 mg/mL of vancomycin and 1% DMSO were applied, respectively, in both assays. In addition, 0.1% Crystal Violet was used as the biofilm colouring agent.

[6] = system: S. aureus (ATCC CRM 6538) biofilm; type: cell-based
Experimental: as §3

E. coli (ATCC 8739) [7] = test: Membrane permeability assay (SYTOX GREEN); type: cell-based
Description: (§4) In order to test the permeability percentage of Temporin-1CEh and its analogues against S. aureus and E. coli, the SYTOX-GREEN nucleic acid stain was used in the assay indicated before. Tryptic soy broth (TSB) and Luria–Bertani (LB) broth were used as the media for S. aureus and E. coli, respectively.

[8] = system: S. aureus (ATCC CRM 6538); test: Membrane permeability assay (SYTOX GREEN); type: cell-based
Description: as §4

S. aureus = test: Galleria mellonella larvae infection model, S. aureus; type: in vivo; conditions: at a concentration of 20 mg/kg; G. mellonella larvae
Experimental: (§5) In this assay, the larvae of the wax moth (Galleria mellonella) were used as the infection model. The larvae (Livefood UK Ltd., Rooks Bridge, UK) were selected between 225 and 275 mg (9 larvae per group in a Petri dish). For the positive and negative controls, 50 mg/kg of vancomycin (25 mg/kg of ampicillin for E. coli) and PBS were employed. Final concentration of S. aureus and E. coli cells injected was 5 × 10^5 and 5 × 10^6 CFU/larva, respectively. The assay was performed as described before and the number of alive larvae was recorded every 12 h.

E. coli = test: Galleria mellonella larvae infection model, E. coli; type: in vivo; conditions: all tested concentrations; G. mellonella larvae, 5 × 10^6 CFU/larva
Experimental: as §5

[9] = Aggregation at high concentration (observation); type: physicochemical; conditions: at a high concentration
[10] = system: erythrocytes from defibrinated horse blood; test: Haemolysis assay; conditions: at 256 μM; horse erythrocytes
Description: The erythrocytes from defibrinated horse blood (TCS Biosciences Ltd., Buckingham, UK) were used to perform the haemolysis assay, as described previously [27]. Equal volumes of PBS and 2% (v/v) of the non-ionic detergent, Triton X-100 (Sigma–Aldrich, St. Louis, MO, USA) in PBS solution, were used as negative and positive controls, respectively. HC50 was defined as the mean peptide concentration producing 50% haemolysis.

E. coli (ATCC 8739) [11] = conditions: MIC of Temporin-1CEa ref 29; cited from earlier work
Description: (§6) Table 2 The MICs and MBCs of Temporin-1CEh and its analogues as well as Temporin-1CEa against the S. aureus (ATCC CRM 6538), MRSA (NCTC 12493), E. faecalis (NCTC 12697), E. coli (ATCC 8739), P. aeruginosa (ATCC 27853) and K. pneumonia (ATCC 43816), as well as the MICs of Temporin-1CEa against S. aureus and E. coli. | column: MIC/MBC (μM) / Temporin-1CEa

[12] = system: S. aureus (ATCC CRM 6538); conditions: MIC of Temporin-1CEa ref 29; cited from earlier work
Description: as §6

[13] = system: erythrocytes from defibrinated horse blood; conditions: cited from earlier work
Experimental: The calculated HC50 of Temporin-1CEh was 152.6 μM compared to that of Temporin-1CEa which was 160 μM [29]. Several modified strategies were used to optimise their antibacterial activity.

**Q.** With `CC[C@H](C)[C@H](NC(=O)[C@H](CCCCNC(=O)[C@H](CCCCN)NC(=O)[C@H](Cc1c[nH]c2ccccc12)NC(=O)[C@@H]1CCCN1C(=O)[C@@H](NC(=O)[C@H](Cc1c[nH]c2ccccc12)NC(=O)[C@H](CCCCN)NC(=O)[C@@H](N)CCCCN)C(C)C)NC(=O)[C@H](CCCCN)NC(=O)[C@H](Cc1c[nH]c2ccccc12)NC(=O)[C@@H]1CCCN1C(=O)[C@@H](NC(=O)[C@H](Cc1c[nH]c2ccccc12)NC(=O)[C@H](CCCCN)NC(=O)[C@@H](N)CCCCN)C(C)C)C(=O)N[C@@H](C)C(=O)N[C@@H](CC(N)=O)C(=O)N[C@H](C(=O)N[C@@H](CC(C)C)C(N)=O)[C@@H](C)CC` [Peptide T1CEh-KKPWW2] (I: H-KKWVPWKKIANIL-NH2 / II: H-KKWVPWK; amide I:8-II:C; N-terminus assumed) as the molecule, how does the MBC (E. coli (ATCC 8739) [1]; ATCC 8739) read?
**A.** The MBC was 2 µM (≈ 5.15 µg/mL).

**Q.** What about the MIC (E. coli (ATCC 8739) [1]; ATCC 8739) of the same molecule?
**A.** The MIC was 2 µM (≈ 5.15 µg/mL).

**Q.** What about the MIC (E. coli (ATCC 8739) [1]; ATCC 8739, pH 6) of the same molecule?
**A.** The MIC was 2 µM (≈ 5.15 µg/mL).

**Q.** What about the MIC (E. coli (ATCC 8739) [1]; ATCC 8739, pH 7) of the same molecule?
**A.** The MIC was 2 µM (≈ 5.15 µg/mL).

**Q.** What about the MIC (E. coli (ATCC 8739) [1]; ATCC 8739, pH 8) of the same molecule?
**A.** The MIC was 2 µM (≈ 5.15 µg/mL).

**Q.** And the “decrease of MIC comparing with that of T1CEh-KKPWW” value (shortened to “decrease of MIC comparing”) (E. coli (ATCC 8739) [1]; E. coli)?
**A.** The value was “twofold”.

**Q.** And the “decrease of MIC comparing” value (E. faecalis (NCTC 12697); E. faecalis)?
**A.** The value was “four-fold”.

**Q.** What about the MBC (E. faecalis (NCTC 12697); NCTC 12697) of the same molecule?
**A.** Its MBC is 64 µM (≈ 165 µg/mL).

**Q.** And the MIC (E. faecalis (NCTC 12697); NCTC 12697)?
**A.** The MIC was 32 µM (≈ 82.4 µg/mL).

**Q.** What about the MIC (E. faecalis (NCTC 12697); NCTC 12697, pH 6) of the same molecule?
**A.** Its MIC is 128 µM (≈ 330 µg/mL).

**Q.** And the MIC (E. faecalis (NCTC 12697); NCTC 12697, pH 7)?
**A.** Its MIC is 32 µM (≈ 82.4 µg/mL).

**Q.** And the MIC (E. faecalis (NCTC 12697); NCTC 12697, pH 8)?
**A.** The MIC was 64 µM (≈ 165 µg/mL).

**Q.** And the MBC ([2]; ATCC 43816)?
**A.** Its MBC is 8 µM (≈ 20.6 µg/mL).

**Q.** And the MIC ([2]; ATCC 43816)?
**A.** Its MIC is 4 µM (≈ 10.3 µg/mL).

**Q.** And the MIC ([2]; ATCC 43816, pH 6)?
**A.** Its MIC is 8 µM (≈ 20.6 µg/mL).

**Q.** And the MIC ([2]; ATCC 43816, pH 7)?
**A.** The MIC was 4 µM (≈ 10.3 µg/mL).

**Q.** And the MIC ([2]; ATCC 43816, pH 8)?
**A.** Its MIC is 4 µM (≈ 10.3 µg/mL).

**Q.** And the “decrease of MIC comparing” value (MRSA (NCTC 12493); MRSA)?
**A.** Its value is “four-fold”.

**Q.** What about the MBC (MRSA (NCTC 12493); NCTC 12493) of the same molecule?
**A.** The MBC was 16 µM (≈ 41.2 µg/mL).

**Q.** And the MIC (MRSA (NCTC 12493); NCTC 12493)?
**A.** Its MIC is 8 µM (≈ 20.6 µg/mL).

**Q.** What about the MIC (MRSA (NCTC 12493); NCTC 12493, pH 6) of the same molecule?
**A.** The MIC was 16 µM (≈ 41.2 µg/mL).

**Q.** And the MIC (MRSA (NCTC 12493); NCTC 12493, pH 7)?
**A.** Its MIC is 8 µM (≈ 20.6 µg/mL).

**Q.** What about the MIC (MRSA (NCTC 12493); NCTC 12493, pH 8) of the same molecule?
**A.** The MIC was 2 µM (≈ 5.15 µg/mL).

**Q.** And the MBC ([3]; ATCC 27853)?
**A.** Its MBC is 16 µM (≈ 41.2 µg/mL).

**Q.** What about the MIC ([3]; ATCC 27853) of the same molecule?
**A.** Its MIC is 8 µM (≈ 20.6 µg/mL).

**Q.** And the MIC ([3]; ATCC 27853, pH 6)?
**A.** Its MIC is 32 µM (≈ 82.4 µg/mL).

**Q.** And the MIC ([3]; ATCC 27853, pH 7)?
**A.** Its MIC is 8 µM (≈ 20.6 µg/mL).

**Q.** And the MIC ([3]; ATCC 27853, pH 8)?
**A.** Its MIC is 8 µM (≈ 20.6 µg/mL).

**Q.** And the “decrease of MIC comparing” value ([3]; P. aeruginosa)?
**A.** Its value is “twofold”.

**Q.** What about the MBC ([4]; ATCC CRM 6538) of the same molecule?
**A.** The MBC was 8 µM (≈ 20.6 µg/mL).

**Q.** And the MIC ([4]; ATCC CRM 6538)?
**A.** Its MIC is 4 µM (≈ 10.3 µg/mL).

**Q.** And the MIC ([4]; ATCC CRM 6538, pH 6)?
**A.** The MIC was 8 µM (≈ 20.6 µg/mL).

**Q.** And the MIC ([4]; ATCC CRM 6538, pH 7)?
**A.** Its MIC is 4 µM (≈ 10.3 µg/mL).

**Q.** And the MIC ([4]; ATCC CRM 6538, pH 8)?
**A.** The MIC was 2 µM (≈ 5.15 µg/mL).

**Q.** And the MBEC [5]?
**A.** The MBEC was greater than 256 µM.

**Q.** And the MBIC [5]?
**A.** The MBIC was 8 µM.

**Q.** And the MBEC [6]?
**A.** The MBEC was greater than 256 µM.

**Q.** What about the MBIC [6] of the same molecule?
**A.** Its MBIC is 32 µM.

**Q.** And the “permeability rates compared with that of Temporin-1CEh” value (E. coli (ATCC 8739) [7])?
**A.** The value was “higher permeability rates”.

**Q.** And the “permeability rates compared with that of Temporin-1CEh” value [8]?
**A.** Its value is “higher permeability rates”.

**Q.** What about the “mortality of S. aureus infected larvae” value (S. aureus) of the same molecule?
**A.** Its value is “significantly reduced the mortality”.

**Q.** What about the “mortality of E. coli infected larvae” value (E. coli) of the same molecule?
**A.** The value was “reduced the mortality”.

**Q.** What about the aggregation [9] of the same molecule?
**A.** Its aggregation is “aggregation can be found in T1CEh-KKPWW2 at a high concentration, achieving hydrogel”.

**Q.** And the haemolysis rate [10]?
**A.** The haemolysis rate was 63%.

**Q.** Which results are given for FVDLKKIANIINSIF-NH2 [Temporin-1CEa]?
**A.** MIC (E. coli (ATCC 8739) [11]): >100 µM; MIC [12]: 13.1 µM; HC50 [13]: 160 µM
